Test [1] relates to PHB2/REA (Ser39) phosphorylation. Put plainly: Okadaic acid treatment, immunoblotting of PHB2/REA phosphorylation, MCF-7. Type of test: cell-based, human. The method, then:
FIG. 31-2 is a diagram illustrating that phosphorylation of ERAP1 by PKA and PKB regulates phosphorylation of PHB2/REA (S39) through the PP1α activity. […] (S39) is caused. MCF-7 cells suppressed for expression of PKA by siRNA method, were stimulated with 10 nM E2 for 24 hours. In addition, MCF-7 cells were treated with H-89 for 30 minutes and washed with PBS. Then, immediately, the cells were stimulated with 10 nM E2 for 24 hours. […] Then, immediately, the cells were stimulated with 10 nM E2 for 24 hours. […] MCF-7 cells suppressed for expression of PKCα by siRNA method were treated with 10 μM ERAP1 peptide. Then, immediately, the cells were stimulated with 10 nM E2 for 24 hours. The cells were fractionated into cytoplasm and nuclear fractions by specific gravity centrifugation.
In general terms: A western blot detects proteins with antibodies after separation by electrophoresis.

Test [2] relates to PHB2/REA localization in MCF-7 cells. Nature of the test: Nuclear translocation of PHB2/REA (fractionation, immunoblotting, immunostaining). Format: cell-based, human. The following applies: 1 hour to 24 hours after administration. The procedure: FIG. 3-1 is a diagram illustrating that ERAP1-peptide treatment promotes nuclear translocation of PHB2. […] MCF-7 cells were stimulated for 24 hours with 10 μM ERAP1-peptide and/or 10 nM E2. The cells were fractioned into mitochondria, cytoplasm, and nuclear fractions by specific gravity centrifugation. Then, each fraction was subjected to immunoblotting analysis using an anti-ERAP1 antibody and an anti-PHB2 antibody. PRDX3, α/β-Tublin (Tublin) and lamin B are markers for mitochondria, cytoplasm, and nuclear fractions, respectively (upper panel). The protein content of each fraction was evaluated with Coomassie-stained SDS-PAGE gel (lower panel). […] KPL-3C cells were treated for 24 hours with 10 μM HA-tagged ERAP1-peptide and/or 10 nM E2. Then, the cells were fractionated into cytoplasm and nuclear fractions by specific gravity centrifugation. Then, which fraction was immunoprecipitated with anti-ERα antibody, an anti-ERAP1 antibody or an anti-PHB2 antibody. Then, immunoblotting was performed with each antibody shown in the figure (an anti-ERAP1 antibody, an anti-ERα antibody, an anti-PHB2 antibody and an anti-HA antibody (Peptide)). α/β-Tubulin (Tubulin) and Lamin B are markers for cytoplasm and nuclear fractions, respectively.
FIG. 4-1 is a diagram illustrating that the ERAP1-peptide promotes nuclear translocation of PHB2. (A) The upper panel illustrates representative images of stained immune cells, showing the intracellular localization of PHB2. MCF-7 cells were treated with 10 μM ERAP1-peptide or ERAP1-scramble peptide. Subsequently, the cells were treated with 10 nM E2. After the immobilization, the cells were subjected to immunofluorescent staining using an anti-PHB2 antibody and DAPI (for discriminating the nucleus).
FIG. 4-2 is a diagram illustrating that the ERAP1-peptide promotes nuclear translocation of PHB2. (B) is a diagram illustrating the results of immunoblotting analysis by which the intracellular localization of PHB2 was detected, MCF-7 cells were treated with the ERAP1-peptide or the ERAP1-scramble peptide. Subsequently immediately, the cells were treated with 10 nM E2. The cells were fractionated into cytoplasm and nuclear fractions after 1 hour or 24 hours. Each fraction was immunoprecipitated with anti-ERα antibody, an anti-ERAP1 antibody or a PH82 antibody. […]
MCF-7 cells were seeded in an 8-well chamber (Laboratory-Tek II Chamber Slide System, Nalgen Nunc International, Naperville, Ill., USA) in 5×10^4 cells/well, and cultured under estrogen-free condition for 24 hours. […] The fluorescence image was obtained under Olympus IX71 microscope (Tokyo, Japan). […]

Test [3] concerns the target T1, binding of Flag-ERAP1 and His-PHB2/REA (Homo sapiens, UniProt Q99623).
T1 construct: human PHB2 (residues 77-244); thioredoxin (TrxA) (N); TEV protease cut site (N); made in house; host or cells: PHB2: Escherichia coli BL21 star (DE3); Flag-ERAP1: lysate of transiently transfected COS-7 cells
Nature of the test: Ni-resin pull-down and Western of His-PHB2/REA with Flag-ERAP1 cell lysate. Conditions: pull-down, each concentration. The method, then: FIG. 2 is a diagram illustrating the results of immunoblotting analysis by which binding of the ERAP1-peptide to PHB2 was evaluated. The cell lysate of the COS-7 cells temporarily transfected with the Flag-tagged ERAP1 plasmid was incubated for 1 hour together with 6×His-tagged recombinant PHB2 protein (10 μg) and the ERAP1-peptide, the ERAP1-scramble peptide, or the ERAP1-mutant peptide in each concentration shown in the figure. Then, His-PHB2 was subjected to pull-down with Ni-NTA agarose (Ni-resin).
The partial sequence of human PHB2 (residues 77-244) was cloned into NcoI and XhoI sites of pTAT6 expression vector (see gift by Dr. Marko Hyvonen, University of Cambridge.: Peranen J, et al., (1996). Anal Biochem. 236, 371-373.) so as to become inframe with the hexahistidine tag, thioredoxin (TrxA) and TEV protease cut site (TEV site) at the amino terminal. The recombinant protein was expressed in Escherichia coli BL21 star (DE3) cell line (Invitrogen, Carlsbad, Calif.), and purified using Hi-Trap Kit (GE Healthcare). Finally, the recombinant protein was purified according to the protocol of the supplier using superdex 200 gel filtration column (GE Healthcare) with high performance liquid chromatography (HPLC). […]

Test [4] has as its system transcriptional activity of ERα (ERE). Nature of the test: ERE-luciferase reporter assay in MCF-7 cells. Conditions: 10 nM E2 24 hours. Type of test: cell-based, human. The procedure: FIG. 3-2 is a diagram illustrating promotion effect of PHB2 nuclear translocation and suppression effect of the transcriptional activation of ER by ERAP1-peptide treatment. (C) illustrates representative images of stained immune cells, showing the localization of the ERAP1-peptide (HA-tagged ERAP1-peptide) and PHB2. MCF-7 cells were treated with 10 μM HA-tagged ERAP1-peptide for 24 hours in the presence or in the absence of 10 nM E2. After the immobilization, the cells were subjected to immunonfluorescent staining using an anti-HA antibody, an anti-PHB2 antibody and DAPI (for discriminating the nucleus). The arrow indicates the nuclear-translocated ERAP1-peptide. […] Then, immediately, the cells were stimulated with 10 nM E2 for 24 hours. TAM indicates the tamoxifen treatment.
FIG. 3-3 is as diagram illustrating the results of the luciferase assay by which the inhibition effect of the ERAP1-peptide was evaluated. MCF-7 cells temporarily transfected with an ERE-luciferase reporter vector (F) or an AP-1-luciferase reporter vector (F) were treated with the ERAP1-peptide, the scramble peptide or the mutant peptide in the concentrations shown in the […]. Then, immediately, the cells were stimulated with 10 nM E2 for 24 hours. TAM indicates the tamoxifen treatment.
FIG. 4-3 is a diagram illustrating that the ERAP1-peptide promotes nuclear translocation of PHB2. (C) and (D) are figures that show the results of the luciferase assay by which the inhibition effect of the ERAP1-peptide on the ERα transcriptional activity was evaluated. MCF-7 cells temporarily transfected with an ERE-luciferase reporter vector (C) or an AP-1-luciferase reporter vector (D) were treated with the ERAP1-peptide in the concentrations shown in the figure or 10 nM tamoxifen. Then, immediately, the cells were stimulated with 10 nM E2 thr 24 hours.
For ERE reporter assay, MCF-7 cells were transfected with ERE reporter (SABiosciences, Frederick, Md., USA) in accordance with the instruction of the manufacturer. For AP-1 reporter assay, MCF-7 cells were transfected with AP-1 reporter (mouse IL-11 promoter comprising two tandem AP-1 sites subcloned into PGL2-basic vector), c-fos, c-Jun and pRL-TK as an internal standard. After 16 hours from the transfection, the culture medium was exchanged with an assay culture medium (Opti-MEM, 10% FBS, 0.1 mM NEAA, 0.1 mM Sodium pyruvate and 10 μg/ml insulin) After 24 hours from the transfection, the cells were treated with E2 and/or the ERAP1-peptide or 24 hours. The cells were harvested, and the activities of luciferase and Renilla-luciferase were evaluated using Promega dual luciferase reporter assay (Tokyo, Japan). In consideration of the transfection efficiency, all of the data were standardized by the activity of Renilla-luciferase.
On the technique in general: A reporter such as luciferase makes a cellular process visible.

Where no end group is shown, it is not given here.

T1 sequence (Q99623 77-244): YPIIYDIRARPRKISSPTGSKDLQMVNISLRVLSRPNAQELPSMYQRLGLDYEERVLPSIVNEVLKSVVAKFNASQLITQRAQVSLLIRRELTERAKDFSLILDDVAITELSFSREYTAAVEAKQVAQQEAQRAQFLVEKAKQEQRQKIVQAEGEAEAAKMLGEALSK

With `C=C1[C@@H](O)[C@@H]2O[C@]3(CC[C@H](/C=C/[C@@H](C)[C@@H]4CC(C)=C[C@@]5(O[C@H](C[C@@](C)(O)C(=O)O)CC[C@H]5O)O4)O3)CC[C@H]2O[C@@H]1[C@@H](O)C[C@H](C)[C@H]1O[C@@]2(CCCCO2)CC[C@H]1C` [okadaic acid], the “E2-dependent PHB2/REA phosphorylation (Ser39)” value is given as “recognized to be recovered” in test [1] (20 nM of okadaic acid) and “confirmed to decrease” in test [1] (40 μM).
For the compound “ERAP1-HA-peptide: ERAP1-peptide to which HA tag was added (RRRRRRRRRRRQMLSDLTLQLRQR; also: HA tag added, place not given here)”, the “nuclear translocation of PHB2/REA, temporal” value in test [2] was “directly bound to PHB2/REA and was nuclear-translocated at the same time”. For the same compound, in test [3], the “direct binding to His-PHB2/REA” value is “directly bound to His-PHB2/REA, depending on the concentration”; the “inhibition of binding of Flag-ERAP1 and His-PHB2/REA” value is on record as “competitively inhibited”. The “transcriptional activity of ERα in ERE” value in test [4] was “suppressed the transcriptional activity of ERα”.

The values above are taken from patent US9725490B2, “ERAP1-derived peptide and use thereof” (TOKUSHIMA UNIVERSITY, priority 2011, dated 2017).
